Consider five molecules from patent publication US10239881B2, “RIPK2 inhibitors and method of treating cancer with same” (University Health Network, priority 2014, dated 2019).

One data set has as its target human RIPK2 kinase (Homo sapiens (Human), UniProt O43353). Put plainly: RIPK2 inhibition assay (indirect ELISA). It is filed as biochemical. The settings on record: His-RIPK2 0.6 nM, 6 μM ATP; read-out: RIPK2 IC50 range. As to the method:
Active RIPK2 was purchased from Life Technologies as His-tagged of catalityc domain (amin acids 1-299) of human RIPK2 kinase expressed in insect cells. Amino terminal 6 histidine, sumo tagged human TTK (residues 1-275) was expressed in E. coli, and purified to >95% homogeneity by Ni^2+ agarose, gel filtration, and ion exchange chromatography.
RIPK2 activity was measured using an indirect ELISA detection system. His—RIPK2 (0.6 nM) was incubated in the presence of 6 μM ATP (Sigma cat # A7699), 20 mM Hepes, pH 7.5, 1 mM EGTA, 2.5 mM MgCl2, 2.5 mM MnCl2 and 0.01% Triton X-100 in a 96 well microtitre plate pre-coated with amino terminal 6 histidine, sumo tagged TTK (amino acid residues 1-275). The reaction was allowed to proceed for 30 minutes, followed by 5 washes of the plate with Wash Buffer (phosphate buffered saline supplemented with 0.2% Tween 20), and incubation for 30 minutes with a 1:3000 dilution of primary antibody (Cell Signaling cat #9381). The plate was washed 5 times with Wash Buffer, incubated for 30 minutes in the presence of secondary antibody coupled to horse radish peroxidase (BioRad cat #1721019, 1:3000 concentration), washed an additional 5 times with Wash Buffer, and incubated in the presence of TMB substrate (Sigma cat # T0440). The colorimetric reaction was allowed to continue for 5 minutes, followed by addition of stop solution (0.5 N H2SO4), and quantified by detection at 450 nm with either a monoChromatic or filter based plate reader (Molecular Devices M5 or Beckman DTX880, respectively).
Compound inhibition was determined at either a fixed concentration (10 μM) or at a variable inhibitor concentration (typically 50 μM to 0.1 μM in a 10 point dose response titration). Compounds were pre-incubated in the presence of enzyme for 15 minutes prior to addition of ATP and the activity remaining quantified using the above described activity assay. The % Inhibition of a compound was determined using the following formula; % Inhibition=100×(1−(experimental value−background value)/(high activity control−background value)). The IC50 value was determined using a non-linear 4 point logistic curve fit (XLfit4, IDBS) with the formula; (A+(B/(1+((x/C)^D)))), where A=background value, B=range, C=inflection point, D=curve fit parameter.
A general note: In an ELISA, binding on a coated surface is turned into a signal by an enzyme label.

The test system of data set [1] is MDA-MB-468 breast cancer cells. Kind of data set: Sulforhodamine B cell growth inhibition assay. It is filed as cell-based. The note with it: Homo sapiens, MDA-MB-468, 120 h; 5 days, SRB; read-out: Breast GI50 range MDA-MB-468. As to the method:
(§1) Breast cancer cells (MDA-MB-231 and MDA-MB-468), colon cancer cells (HCT116 and HT-29) and ovarian cancer cells (SKOV-3 and OVCAR-3) were seeded (1000 to 4000 in 80 μL per well depending on the cell growth rate) into 96 well plates 24 hours before compound overlay. Compounds were prepared as 10 mM stock solutions in 100% DMSO which were diluted with DMEM (Dulbecco's Modified Eagle's Medium) cell growth Medium (Invitrogen, Burlington, ON, Canada) containing 10% FBS (Fetal Bovine Serum) to concentrations ranging from 50 nM to 250 μM. Aliquots (20 μL) from each concentration were overlaid to 80 μL of the pre-seeded cells in the 96 well plates to make final concentrations of 10 nM to 50 μM. The cells were cultured for 5 days before the Sulforhodamine B assay (SRB) was performed to determine the compound's cell growth inhibition activity.
(§2) The cells are fixed in situ by gently aspirating off the culture media and adding 50 μL ice cold 10% trichloroacetic acid per well and incubate at 4° C. for 30-60 min. The plates are washed with H2O five times and allowed to air dry for 5 min. Addition of 50 μL 0.4% (w/v) SRB solution in 1% (v/v) acetic acid to each well and incubation for 30 min at rt completes the staining reaction. Following staining, plates are washed four times with 1% acetic acid to remove unbound dye and then allowed to air dry for 5 min. The stain is solubilized with 100 μL of 10 mM Tris pH 10.5 per well. Absorbance is read at 570 nm. The percentage (%) of relative growth inhibition was calculated by comparing to DMSO treated only cells (100%). GI50's were determined for compounds with cytotoxic activity. The GI50 was calculated using GraphPad PRISM software (GraphPad Software, Inc., San Diego, Calif., USA). GI50 (growth inhibition) is the compound concentration that causes 50% inhibition of cell growth.
(§3) In Table 2 lists GI50 value ranges for compound examples against breast cancer cell lines (MDA-MB-231, MDA-MB-468), colon cancer cell lines (HCT116, HT-29) and ovarian cancer cell lines (OVCAR-3, SKOV-3) are given. […] The GI50 ranges are indicated as “A,” “B,” and “C,” for values less than or equal to 1 μM; those greater than 1 μM and less than or equal to 10 μM; and those greater than 10 μM, respectively.

The subject of data set [2] is HCT116 colon cancer cells. Put plainly: Sulforhodamine B cell growth inhibition assay. The format is cell-based. The settings on record: Homo sapiens, HCT-116, 120 h; 5 days, SRB; read-out: Colon GI50 range HCT116. As to the method: as §1, §2, §3
In a further data set the test system is HT-29 colon cancer cells. Kind of data set: Sulforhodamine B cell growth inhibition assay. It is filed as cell-based. The note with it: Homo sapiens, HT-29, 120 h; 5 days, SRB; read-out: Colon GI50 range HT29. As to the method:
as §1, §2, §3

For data set [3], the system named is SKOV-3 ovarian cancer cells. Put plainly: Sulforhodamine B cell growth inhibition assay. It is filed as cell-based. The note with it: Homo sapiens, SK-OV-3, 120 h; 5 days, SRB; read-out: Ovarian GI50 range SKOV-3. As to the method:
as §1, §2, §3

The test system of data set [4] is MDA-MB-231 breast cancer cells. Put plainly: Sulforhodamine B cell growth inhibition assay. The format is cell-based. The settings on record: Homo sapiens, MDA-MB-231, 120 h; 5 days, SRB; read-out: Breast GI50 range MDA-MB-231. As to the method: as §1, §2, §3
In data set [5] the test system is OVCAR-3 ovarian cancer cells. Put plainly: Sulforhodamine B cell growth inhibition assay. The settings on record: Homo sapiens, OVCAR-3, 120 h; 5 days, SRB; read-out: Ovarian GI50 range OVCAR-3. It is filed as cell-based. As to the method:
as §1, §2, §3

Data set [6] concerns mouse bone marrow dendritic cells. Put plainly: Dendritic cell viability by 7AAD exclusion. It is filed as cell-based. The note with it: stimulated 24 hours with LPS or Pam3Cys ± 1 μg/ml MDP. As to the method: (§4) IL-12-yellow fluorescent protein (YFP) reporter mouse bone marrow dendritic cells were stimulated for 24 hours with 0.3 ng/ml LPS±1 μg/ml MDP (i.e., NOD2 agonist) in the presence of Example A3 (FIG. 2A). IL-12-yellow fluorescent protein (YFP) reporter mouse bone marrow dendritic cells were stimulated for 24 hours with 0.3 μg/ml Pam3Cys±1 μg/ml MDP (i.e., NOD2 agonist) in the presence of Example A3 (FIG. 2B). […] Data are represented as the mean±SEM of triplicate measurements. Levels of IL-12 p70 (FIG. 2C, left panel) and TNFα (FIG. 2C, right panel) in the cell culture supernatants from A were measured by ELISA techniques with commercially available kits. […] Data are represented as the mean±SEM of triplicate measurements.

The subject of another data set is IL-12 p70. Kind of data set: IL-12 p70 in dendritic cell culture supernatants by ELISA. It is filed as cell-based, mouse. The settings on record: 0.3 ng/ml LPS ± 1 μg/ml MDP, 24 hours. As to the method:
as §4

Data set [7] deals with IL-12-yellow fluorescent protein (YFP) reporter mouse bone marrow dendritic cells. Put plainly: IL-12-YFP reporter dendritic cells, flow cytometric analysis. The format is cell-based. The note with it: stimulated 24 hours with LPS or Pam3Cys ± 1 μg/ml MDP. As to the method:
FIGS. 2(A)-(C) are graphs illustrating the effects of compound A3 on cytokine production by dendritic cells.
as §4
A general note: Flow cytometry measures light scatter and fluorescence of single cells or particles in a stream.

For the next data set, the system named is TNFα. Kind of data set: TNFα in dendritic cell culture supernatants by ELISA. The format is cell-based, mouse. The settings on record: 0.3 ng/ml LPS ± 1 μg/ml MDP, 24 hours. As to the method:
as §4

Structures are written as SMILES. Bounds are passed on as bounds.

human RIPK2 kinase, sequence (O43353 1-299): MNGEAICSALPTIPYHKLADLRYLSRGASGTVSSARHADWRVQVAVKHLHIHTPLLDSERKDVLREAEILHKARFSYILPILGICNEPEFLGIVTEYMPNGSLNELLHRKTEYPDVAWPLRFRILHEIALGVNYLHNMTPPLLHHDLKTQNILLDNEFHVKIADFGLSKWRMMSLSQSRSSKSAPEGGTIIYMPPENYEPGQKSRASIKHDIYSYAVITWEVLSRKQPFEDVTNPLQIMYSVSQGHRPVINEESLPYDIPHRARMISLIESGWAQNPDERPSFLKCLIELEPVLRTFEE

For orientation: IC50 means the concentration at which inhibition is half-maximal. As usually defined, the GI50 is the concentration giving 50% growth inhibition. `Cc1ccccc1-c1cc2nc(Nc3ccc(OC4CCN(C)CC4)cc3)ncc2[nH]1` [Example A2, N-(4-((1-methylpiperidin-4-yl)oxy)phenyl)-6-(o-tolyl)-5H-pyrrolo[3,2-d] pyrimidin-2-amine]: on human RIPK2 kinase, the IC50 was at most 100 nM. In addition, the GI50 (in data set [1]; in [2]; in the data set with HT-29 colon cancer cells; in data set [3]; in data set [4]; in [5]) was 1000 to 10000 nM each time.

For the molecule `Cc1cccc(C)c1-c1cc2nc(Nc3cccc(N4CCOCC4)c3)ncc2[nH]1` [Example A12, 6-(2,6-dimethylphenyl)-N-(3-morpholinophenyl)-5H-pyrrolo[3,2-d]pyrimidin-2-amine], on human RIPK2 kinase, the half-maximal inhibitory concentration (IC50) is at most 100 nM. For the same molecule, the concentration for 50% growth inhibition (GI50) was 1000 to 10000 nM in data set [1]; 1000 to 10000 nM in data set [2]; 1000 to 10000 nM in the data set with HT-29 colon cancer cells; at most 1000 nM in data set [3]; 1000 to 10000 nM in data set [4]; at most 1000 nM in [5].

Consider `Cc1ccccc1-c1cc2nc(Nc3cccc(N4CCOCC4)c3)ncc2[nH]1` [Example A3, N-(3-morpholinophenyl)-6-(o-tolyl)-5H-pyrrolo[3,2-d]pyrimidin-2-amine], for which the “cell viability as assessed by 7AAD exclusion” value in data set [6] was “no measurable effect”. Also, at human RIPK2 kinase, the half-maximal inhibitory concentration (IC50) was at most 100 nM. The “levels of IL-12 p70 in cell culture supernatants” value in the data set with IL-12 p70 was “dose-dependent reduction”. In data set [7], the “percentage of YFP positive cells (percentage of IL-12 positive cells)” value is reported as “minimal effect”. For the same molecule, the “mean fluorescence intensity YFP (amount of IL-12)” value in [7] (MDP-dependent) is on record as “dose-dependent reduction”. Also, the GI50 (in data set [1]; in [2]; with HT-29 colon cancer cells; in [3]; in [4]; in [5]) was at most 1000 nM in each case. In addition, in the data set with TNFα, the “levels of TNFα in cell culture supernatants” value was “dose-dependent reduction”.

As to `Fc1ccccc1-c1cc2nc(Nc3cccc(N4CCOCC4)c3)ncc2[nH]1` [Example A13, 6-(2-fluorophenyl)-N-(3-morpholino-phenyl)-5H-pyrrolo[3,2-d]pyrimidin-2-amine], on human RIPK2 kinase, the IC50 fell in the range of 100 to 500 nM. Besides, the GI50 (in [1]; in [2]; in the data set on HT-29 colon cancer cells; in data set [3]; in data set [4]; in data set [5]) was at most 1000 nM in each case.

Consider `Cc1ccccc1-c1cc2nc(Nc3cccc(N4CCN(C)CC4)c3)ncc2[nH]1` [Example A4, N-(3-(4-methylpiperazin-1-yl)phenyl)-6-(o-tolyl)-5H-pyrrolo[3,2-d]pyrimidin-2-amine], for which, on human RIPK2 kinase, the half-inhibitory concentration (IC50) was at most 100 nM. The GI50 in [1] was at most 1000 nM; in data set [2], at most 1000 nM; in the data set on HT-29 colon cancer cells, at most 1000 nM; in [3] it was 1000 to 10000 nM; in data set [4], at most 1000 nM; in data set [5], at most 1000 nM.
